# Earlier results in US10940187B2, “Method of treatment of schizophreniform disorder” (Curemark, LLC, priority 2011, dated 2021).
# Where two headings read alike, the source gives them in different places.
# Legend:
# ckr mice = settings: for spontaneous hyperactivity of ckr mice: dose dependent effects
# control mice = settings: monitored during the dark cycle
structure (smiles),measurement,setting,value
O=C1CCc2ccc(OCCCCN3CCN(c4cccc(Cl)c4Cl)CC3)cc2N1 [aripiprazole],"locomotor activity, post-hoc Dunnett's test vs vehicle control",ckr mice; 15 mg/kg,did not significantly suppress
same,motor activity,ckr mice; 15 mg/kg,increase in motor activity
same,"locomotor activity, post-hoc Dunnett's test vs vehicle control",ckr mice; 30 mg/kg,significantly suppressed
same,motor activity,ckr mice; 30 mg/kg,suppression of motor activity
same,overall suppression of motor function (observational),ckr mice; 30 mg/kg,severe sedation
same,locomotor activity of ckr mice,"ckr mice; across doses, F6,54_4.626, P_0.001",dose-dependently reduced
same,ED50 for initial suppression of locomotor activity,"ckr mice; curve fitted to subset of data, doses 1.67 to 10 mg/kg, fit failed to correlate with observed values",2.695 mg/kg
same,spontaneous hyperactivity of ckr mice,ckr mice,dose-dependently suppressed
same,"locomotor activity, post-hoc Dunnett's test vs vehicle control",ckr mice; doses of 3-10 mg/kg,significantly reduced
same,motor activity,ckr mice; lower doses 1.67-10 mg/kg,dose-dependent reduction
same,shape of dose-response on hyperactivity,"ckr mice; suppression at low doses, little effect at intermediate doses, suppression at high doses",tri-phasic dose-response
O=C(CCCN1CCC(O)(c2ccc(Cl)cc2)CC1)c1ccc(F)cc1 [haloperidol],spontaneous hyperactivity of ckr mice,ckr mice,dose-dependently suppressed
same,locomotor activity of control mice,control mice,did not produce a significant suppression
OCCOCCN1CCN(C2=Nc3ccccc3Sc3ccccc32)CC1 [quetiapine],spontaneous hyperactivity of ckr mice,ckr mice,dose-dependently suppressed
Cc1nc2n(c(=O)c1CCN1CCC(c3noc4cc(F)ccc34)CC1)CCCC2 [risperidone],spontaneous hyperactivity of ckr mice,ckr mice,dose-dependently suppressed
O=C1Cc2cc(CCN3CCN(c4nsc5ccccc45)CC3)c(Cl)cc2N1 [ziprasidone],spontaneous hyperactivity of ckr mice,ckr mice,dose-dependently suppressed
